Data as given in ChEMBL document CHEMBL3414499, “Characterization of two distinct structural classes of selective aldehyde dehydrogenase 1A1 inhibitors” (J Med Chem, 2015).
Active and inactive are the calls of the source. The calls are words filed in the database; no cut-off is given here.

Tests used:
[1] = target: T1, Retinal dehydrogenase 2 (Homo sapiens) (UniProt O94788); test: Activation of recombinant human ALDH1A2 using propionaldehyde as substrate at 100 uM preincubated for 2 mins with NAD+ followed by substrate addition by UV-Vis spectrophotometric analysis
T1 sequence (whole entry): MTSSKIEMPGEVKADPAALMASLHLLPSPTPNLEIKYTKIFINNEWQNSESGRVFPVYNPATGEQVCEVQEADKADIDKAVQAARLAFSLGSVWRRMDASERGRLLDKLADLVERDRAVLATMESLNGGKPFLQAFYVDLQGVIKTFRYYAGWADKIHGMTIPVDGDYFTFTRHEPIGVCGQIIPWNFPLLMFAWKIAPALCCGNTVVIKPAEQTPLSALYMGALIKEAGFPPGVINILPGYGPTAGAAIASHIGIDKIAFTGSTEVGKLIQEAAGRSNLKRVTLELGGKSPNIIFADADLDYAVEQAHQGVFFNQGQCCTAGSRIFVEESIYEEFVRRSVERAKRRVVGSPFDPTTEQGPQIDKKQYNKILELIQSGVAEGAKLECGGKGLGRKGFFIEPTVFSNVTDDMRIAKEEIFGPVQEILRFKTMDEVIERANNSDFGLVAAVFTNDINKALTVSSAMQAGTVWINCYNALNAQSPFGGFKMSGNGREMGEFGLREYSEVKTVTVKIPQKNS

[2] = target: T2, Aldehyde dehydrogenase X, mitochondrial (Homo sapiens) (UniProt P30837); test: Activation of recombinant human ALDH1B1 using propionaldehyde as substrate at 100 uM preincubated for 2 mins with NAD+ followed by substrate addition by UV-Vis spectrophotometric analysis
T2 sequence (whole entry): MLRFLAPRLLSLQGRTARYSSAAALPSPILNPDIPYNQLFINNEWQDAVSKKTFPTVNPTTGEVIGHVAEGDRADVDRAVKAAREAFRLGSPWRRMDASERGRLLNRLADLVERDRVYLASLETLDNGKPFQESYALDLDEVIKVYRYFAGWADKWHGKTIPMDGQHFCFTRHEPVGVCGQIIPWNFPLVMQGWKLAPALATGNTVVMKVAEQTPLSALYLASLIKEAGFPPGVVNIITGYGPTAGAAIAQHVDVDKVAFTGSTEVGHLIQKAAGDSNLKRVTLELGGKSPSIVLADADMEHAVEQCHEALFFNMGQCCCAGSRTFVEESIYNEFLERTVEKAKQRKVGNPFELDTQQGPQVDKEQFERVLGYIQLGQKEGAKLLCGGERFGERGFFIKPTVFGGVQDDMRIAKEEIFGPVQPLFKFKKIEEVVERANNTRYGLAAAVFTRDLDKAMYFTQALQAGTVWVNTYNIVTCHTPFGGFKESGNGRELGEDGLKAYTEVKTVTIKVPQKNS

[3] = target: T3, Aldehyde dehydrogenase, dimeric NADP-preferring (Homo sapiens) (UniProt P30838); test: Activation of recombinant human ALDH3A1 using benzaldehyde as substrate at 100 uM preincubated for 2 mins with NAD+ followed by substrate addition by UV-Vis spectrophotometric analysis
T3 sequence (whole entry): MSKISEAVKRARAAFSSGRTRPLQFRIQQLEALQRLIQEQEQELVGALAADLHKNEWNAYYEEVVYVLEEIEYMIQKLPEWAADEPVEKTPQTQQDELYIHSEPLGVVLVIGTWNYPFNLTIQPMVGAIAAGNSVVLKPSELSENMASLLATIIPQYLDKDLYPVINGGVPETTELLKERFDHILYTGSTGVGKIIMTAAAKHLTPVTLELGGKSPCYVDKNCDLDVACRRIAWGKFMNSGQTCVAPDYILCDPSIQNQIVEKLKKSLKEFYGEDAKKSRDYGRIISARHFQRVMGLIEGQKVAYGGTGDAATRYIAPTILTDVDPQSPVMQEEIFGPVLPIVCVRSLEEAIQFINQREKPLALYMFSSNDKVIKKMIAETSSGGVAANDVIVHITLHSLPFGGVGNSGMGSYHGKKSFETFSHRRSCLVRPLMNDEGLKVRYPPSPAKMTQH

[4] = target: T1, Retinal dehydrogenase 2 (Homo sapiens); test: Inhibition of recombinant human ALDH1A2 using propionaldehyde as substrate at 100 uM preincubated for 2 mins with NAD+ followed by substrate addition by UV-Vis spectrophotometric analysis
[5] = target: T4, Aldehyde dehydrogenase X, mitochondrial (Homo sapiens, UniProt P30837); test: Inhibition of recombinant human ALDH1B1 using propionaldehyde as substrate preincubated for 2 mins with NAD+ followed by substrate addition by UV-Vis spectrophotometric analysis
T4 sequence (P30837 whole entry): T2 sequence (whole entry)

[6] = target: T5, Retinal dehydrogenase 2 (Homo sapiens, UniProt O94788); test: Inhibition of recombinant human ALDH1A2 using propionaldehyde as substrate preincubated for 2 mins with NAD+ followed by substrate addition by UV-Vis spectrophotometric analysis
T5 sequence (O94788 whole entry): T1 sequence (whole entry)

[7] = target: T6, Aldehyde dehydrogenase 1A1 (Homo sapiens) (UniProt P00352); test: Inhibition of recombinant human ALDH1A1 using propionaldehyde as substrate at 100 uM preincubated for 2 mins with NAD+ followed by substrate addition by UV-Vis spectrophotometric analysis relative to control
T6 sequence (whole entry): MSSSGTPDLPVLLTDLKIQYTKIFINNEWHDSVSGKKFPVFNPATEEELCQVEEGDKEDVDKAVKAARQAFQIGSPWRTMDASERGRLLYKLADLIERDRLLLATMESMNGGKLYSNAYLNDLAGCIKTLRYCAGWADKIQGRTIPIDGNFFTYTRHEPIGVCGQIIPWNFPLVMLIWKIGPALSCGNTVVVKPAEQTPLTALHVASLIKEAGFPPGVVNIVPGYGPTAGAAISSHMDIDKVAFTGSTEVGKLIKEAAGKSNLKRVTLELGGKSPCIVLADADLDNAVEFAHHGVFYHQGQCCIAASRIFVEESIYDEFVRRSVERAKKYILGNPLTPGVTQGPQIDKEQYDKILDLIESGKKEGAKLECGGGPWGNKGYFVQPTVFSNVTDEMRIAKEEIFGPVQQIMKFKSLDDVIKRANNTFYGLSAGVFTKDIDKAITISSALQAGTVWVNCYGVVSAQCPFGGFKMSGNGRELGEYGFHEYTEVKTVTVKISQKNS

[8] = target: T2, Aldehyde dehydrogenase X, mitochondrial (Homo sapiens); test: Inhibition of recombinant human ALDH1B1 using propionaldehyde as substrate at 100 uM preincubated for 2 mins with NAD+ followed by substrate addition by UV-Vis spectrophotometric analysis

CC(C)CCn1c(CN2CCN(C(=O)c3ccco3)CC2)nc2c1c(=O)n(C)c(=O)n2C
Activity [1]: Active
Activity [2]: Active
Activity [3]: Active

Cn1c(=O)c2c(nc(CN3CCC(C(N)=O)CC3)n2CCCc2ccccc2)n(C)c1=O
inhibition [4]: inactive
IC50 [5]: > 100 µM

CC(C)CCn1c(CN2CCOCC2)nc2c1c(=O)n(C)c(=O)n2C
inhibition [4]: inactive
IC50 [5]: > 100 µM

Cn1c(=O)c2c(nc(N3CCN(Cc4ccccc4)CC3)n2Cc2cccc(Cl)c2)n(C)c1=O
IC50 [6]: > 100 µM
Activity [2]: Active
Activity [3]: Active

CC(C)CCn1c(CN(C)Cc2ccccc2)nc2c1c(=O)n(C)c(=O)n2C
IC50 [6]: > 100 µM
IC50 [5]: > 100 µM
Imax [7]: < 70%

Cn1c(=O)c2c(nc(N3CCOCC3)n2Cc2ccccc2F)n(C)c1=O
inhibition [8]: inactive
Activity [1]: Active

CCCCn1c(CN2CCN(c3cccc(Cl)c3)CC2)nc2c1c(=O)n(C)c(=O)n2C
IC50 [6]: > 100 µM
IC50 [5]: > 100 µM
Activity [3]: Active

CCCCn1c(Oc2ccc(C(=O)OC)cc2)nc2c1c(=O)n(C)c(=O)n2C
inhibition [8]: inactive
IC50 [6]: > 100 µM
Imax [7]: < 70%

Cn1c(=O)c2c(nc(SCC(N)=O)n2Cc2ccccc2F)n(C)c1=O
inhibition [8]: inactive
inhibition [4]: inactive
Imax [7]: < 70%

CCN1CCN(Cc2nc3c(c(=O)n(C)c(=O)n3C)n2CC(=O)c2ccccc2)CC1
inhibition [8]: inactive
inhibition [4]: inactive

CCCCn1c(CN2CCN(c3ccc(OC)cc3)CC2)nc2c1c(=O)n(C)c(=O)n2C
inhibition [4]: inactive
IC50 [5]: > 100 µM
